From US20250002954A1, “Novel Compound, Use Thereof, and Method for Producing Same, and Compound-Containing Composition, Method for Producing 4-Trehalosamine, and Microorganism” (Microbial Chemistry Research Foundation, priority 2021, published 2025) come the findings set out here.

Test [1] concerns the target T1, bovine alkaline phosphatase (CIP) (Bos taurus, UniProt P19111).
T1 construct: purchased New England Biolabs
As to the kind of experiment: Evaluation of CIP-protective activity under freeze-dried condition. It counts as biochemical. The following applies: for CIP activity after freeze-drying: freeze-dried with 3% additive. The protocol: Test samples 1 to 12 containing bovine alkaline phosphatase (CIP) were prepared as follows and protein-protective activity of various kinds of added sugar under freeze-dried condition was evaluated.
After bovine alkaline phosphatase (10 units/μL, manufactured by New England Biolabs) was diluted to 1/40 with TBS (manufactured by Takara Bio Inc.), it was subjected to dialysis for 2 hours at 4° C. within TBS of an amount 1,000 times the diluted enzyme solution to remove glycerol. 40 μL of TBS containing 2% trehalose (TRH) was added to and mixed with 40 μL of the enzyme solution after dialysis and the mixture was frozen at −80° C. for 10 minutes. It was then freeze-dried for 20 hours with a freeze dryer (FLEXI-DRY, manufactured by FTS systems INC., Warminster) connected to a vacuum pump (P65D, manufactured by PHIL Sato Vac INC.), preparing freeze-dried product of enzyme with 1% TRH.
Freeze-dried product of enzyme with 3% TRH was prepared in a similar manner to the preparation method of test sample 4 except that the final concentration of trehalose was changed to 3% in the preparation method of test sample 4. […]
Freeze-dried product of enzyme with 3% 4TA was prepared in a similar manner to the preparation method of test sample 5 except that trehalose was changed to 4-trehalosamine (4TA) in the preparation method of test sample 5. […]
Freeze-dried product of enzyme with 3% MLT was prepared in a similar manner to the preparation method of test sample 5 except that trehalose was changed to maltose (MLT) in the preparation method of test sample 5. […]
(§1) Freeze-dried product of enzyme with 3% SCR was prepared in a similar manner to the preparation method of test sample 5 except that trehalose was changed to sucrose (SCR) in the preparation method of test sample 5.
(§2) Freeze-dried product of enzyme with 3% GOL was prepared in a similar manner to the preparation method of test sample 5 except that trehalose was changed to glycerol (GOL) in the preparation method of test sample 5.
80 μL of water was added to each of the freeze-dried products of test samples 3 to 12 and the mixture was diluted to 1/100 with TBS. Test samples 1 and 2 were diluted to 1/100 with TBS. 10 μL of each of the diluted test samples 1 to 12 and 20 μL of 0.1 M p-nitrophenylphosphate (pNPP)-TBS solution were added to 70 μL of TBS, and enzyme reaction was left to take place at 37° C. for 1 hour. After the reaction, absorbance at 420 nm was measured with a microplate reader (Cytation5, manufactured by Bio Tek Instruments) and CIP activity was measured by the amount of p-nitrophenol as enzyme reaction product (n=3, mean±S.D.).

Test [2] deals with T2, yeast alcohol dehydrogenase (ADH) (Saccharomyces cerevisiae, UniProt P00330).
T2 construct: purchased Oriental Yeast Co., Ltd
T2 sequence (P00330 1-348): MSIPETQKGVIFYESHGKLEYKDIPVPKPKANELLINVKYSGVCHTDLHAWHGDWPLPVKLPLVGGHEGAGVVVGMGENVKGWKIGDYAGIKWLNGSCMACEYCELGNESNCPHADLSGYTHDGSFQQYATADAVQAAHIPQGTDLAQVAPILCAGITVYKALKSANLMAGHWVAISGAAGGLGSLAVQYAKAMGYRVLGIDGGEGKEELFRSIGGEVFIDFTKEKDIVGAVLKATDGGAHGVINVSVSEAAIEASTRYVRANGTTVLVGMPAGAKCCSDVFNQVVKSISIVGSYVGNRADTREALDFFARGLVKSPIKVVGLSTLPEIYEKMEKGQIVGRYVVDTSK
As to the kind of experiment: Evaluation of ADH-protective activity under freeze-dried condition. It counts as biochemical. Conditions: for ADH activity after freeze-drying: freeze-dried with 1% or 3% sugar, GOL 3%. The protocol: Test samples 1 to 12 containing yeast alcohol dehydrogenase (ADH) were prepared as follows and protein-protective activity of various kinds of added sugar under freeze-dried condition was evaluated.
Yeast alcohol dehydrogenase (manufactured by Oriental Yeast Co., Ltd.) was dissolved in water at 1,000 units/mL and then diluted to 6 units/mL with TBS (manufactured by Takara Bio Inc.). 50 μL of TBS containing 2% trehalose (TRH) was added to and mixed with 50 μL of this enzyme solution and the mixture was frozen at −80° C. for 10 minutes. It was then freeze-dried for 20 hours with a freeze dryer (FLEXI-DRY, manufactured by FTS systems INC., Warminster) connected to a vacuum pump (P65D, manufactured by PHIL Sato Vac INC.), preparing freeze-dried product of enzyme with 1% TRH.
Freeze-dried product of enzyme with 3% TRH was prepared in a similar manner to the preparation method of test sample 4 except that the final concentration of trehalose was changed to 3% in the preparation method of test sample 4.
Freeze-dried product of enzyme with 1% 4TA was prepared in a similar manner to the preparation method of test sample 4 except that trehalose was changed to 4-trehalosamine (4TA) in the preparation method of test sample 4.
Freeze-dried product of enzyme with 3% 4TA was prepared in a similar manner to the preparation method of test sample 5 except that trehalose was changed to 4-trehalosamine (4TA) in the preparation method of test sample 5.
Freeze-dried product of enzyme with 1% MLT was prepared in a similar manner to the preparation method of test sample 4 except that trehalose was changed to maltose (MLT) in the preparation method of test sample 4.
Freeze-dried product of enzyme with 3% MLT was prepared in a similar manner to the preparation method of test sample 5 except that trehalose was changed to maltose (MLT) in the preparation method of test sample 5.
Freeze-dried product of enzyme with 1% SCR was prepared in a similar manner to the preparation method of test sample 4 except that trehalose was changed to sucrose (SCR) in the preparation method of test sample 4.
as §1, §2
The enzyme solution from test sample 1, the freeze-thaw product of enzyme from test sample 2, and the freeze-dried products from test samples 3 to 12 were each diluted to 0.012 units/mL with TBS. 0.5 mM β-NAD^+ (manufactured by Oriental Yeast Co., Ltd.) and 0.62 M ethanol were added, and enzyme reaction was left to take place at room temperature for 1 hour. After the reaction, absorbance at 340 nm was measured with a microplate reader (Cytation5, manufactured by Bio Tek Instruments) (n=3, mean±S.D.). The value of this absorbance at 340 nm was divided by the value of absorbance at 340 nm for the enzyme solution of test sample 1 (control) to determine ADH activity.

T1 sequence (P19111 20-506): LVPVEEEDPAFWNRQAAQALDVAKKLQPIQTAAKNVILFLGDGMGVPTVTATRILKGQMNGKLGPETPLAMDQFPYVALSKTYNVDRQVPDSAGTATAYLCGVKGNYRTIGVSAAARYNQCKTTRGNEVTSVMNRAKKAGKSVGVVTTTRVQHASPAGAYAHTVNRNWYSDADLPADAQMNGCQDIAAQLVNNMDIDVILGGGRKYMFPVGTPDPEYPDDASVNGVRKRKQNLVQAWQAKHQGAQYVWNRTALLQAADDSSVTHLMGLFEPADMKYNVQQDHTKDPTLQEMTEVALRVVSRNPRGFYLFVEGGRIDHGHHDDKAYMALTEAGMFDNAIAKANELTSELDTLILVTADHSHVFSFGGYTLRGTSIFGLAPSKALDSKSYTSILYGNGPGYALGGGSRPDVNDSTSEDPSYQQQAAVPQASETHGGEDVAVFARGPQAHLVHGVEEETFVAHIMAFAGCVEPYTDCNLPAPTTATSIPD

For the compound `OC[C@H]1O[C@H](O[C@H]2O[C@H](CO)[C@@H](O)[C@H](O)[C@H]2O)[C@H](O)[C@@H](O)[C@@H]1O` [trehalose, reference compound], the “CIP activity after freeze-drying” value in test [1] is “good activity was maintained”. The “ADH activity after freeze-drying” value in test [2] was “good activity was maintained”.
`OCC(O)CO` [GOL, glycerol]: the “CIP activity after freeze-drying” value in test [1] is given as “enzyme activity significantly dropped”. Besides, the “ADH activity after freeze-drying” value in test [2] is “enzyme activity significantly dropped”.
Regarding `OC[C@H]1O[C@@](CO)(O[C@H]2O[C@H](CO)[C@@H](O)[C@H](O)[C@H]2O)[C@@H](O)[C@@H]1O` [sucrose], the “CIP activity after freeze-drying” value in test [1] is reported as “good activity was maintained”. For the same compound, the “ADH activity after freeze-drying” value in test [2] is recorded as “good activity was maintained”.
Turning to `N[C@H]1[C@H](O)[C@@H](O)[C@@H](O[C@H]2O[C@H](CO)[C@@H](O)[C@H](O)[C@H]2O)O[C@@H]1CO` [4-trehalosamine], in test [1] (freeze-dried), the “CIP protection effect compared to other sugars” value is on record as “high compared to the other sugars”. For the same compound, the “CIP activity after freeze-drying” value in test [1] was “good activity was maintained”. In addition, the “ADH protection effect compared to other sugars” value in test [2] (freeze-dried) is listed as “high compared to the other sugars”. Also, the “ADH activity after freeze-drying” value in test [2] was “good activity was maintained”.
For the compound `OC[C@H]1O[C@H](O[C@H]2[C@H](O)[C@@H](O)C(O)O[C@@H]2CO)[C@H](O)[C@@H](O)[C@@H]1O` (mixture of isomers) [maltose], the “CIP activity after freeze-drying” value in test [1] is on record as “good activity was maintained”. Besides, in test [2], the “ADH activity after freeze-drying” value was “good activity was maintained”.
